Consider nine compounds from PubChem BioAssay (NCI).

Test systems include COLO 205 colon; EKVX NSCLC; HOP-62 NSCLC; HS 578T breast; K-562 leukemia; MALME-3M melanoma; MDA-MB-231 breast; RPMI-8226 leukemia; T-47D breast; UACC-257 melanoma.
Test in all cases: inhibition of tumour cell growth, NCI panel, 48 h

Molecules are shown by their SMILES. Values joined by “and” are separate entries in the source; they are usually repeats but may differ in a detail not shown here. Equal entries are not always repeated.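 Method: 48-hour compound exposure of cells in 96-well plates, five concentrations, linear interpolation of endpoints. GI50 = concentration required for 50% inhibition of growth. At the TGI there is no net growth.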 A value given as a limit tells only on which side of the number the result lay.

Regarding `N#Cc1c(NCc2ccccc2)nc(NCc2ccccc2)c(C#N)c1-c1ccc(Cl)cc1`, the GI50 in the assay on COLO 205 colon was > 50 µM and 76 µM; in the assay with EKVX NSCLC, 50.8 µM; in the assay on HOP-62 NSCLC it was > 50 µM and 22.3 µM; with HS 578T breast, > 50 µM and 37.8 µM; in the assay on K-562 leukemia, greater than 50 µM; in the assay with MALME-3M melanoma, greater than 100 µM. The GI50 was > 50 µM and 31.9 µM in the assay on MDA-MB-231 breast; > 50 µM and 50.3 µM in the assay with RPMI-8226 leukemia; greater than 100 µM with T-47D breast; greater than 100 µM in the assay with UACC-257 melanoma. Besides, the TGI is greater than 100 µM in the assay with COLO 205 colon; greater than 100 µM in the assay on EKVX NSCLC; > 50 µM and 62.7 µM in the assay on HOP-62 NSCLC; > 50 µM and 86.6 µM in the assay with HS 578T breast; greater than 50 µM with K-562 leukemia; greater than 100 µM with MALME-3M melanoma. Besides, the TGI in the assay with MDA-MB-231 breast, in the assay with RPMI-8226 leukemia, in the assay on T-47D breast and in the assay on UACC-257 melanoma was greater than 100 µM in each case.
With `COC(=O)c1ccc2nc(-c3cc4ccccc4n3C)n(CCCCOc3cc4c(cc3OC)C(=O)N3CCC[C@H]3C=N4)c2c1`, the GI50 is 0.575 µM with COLO 205 colon; 2.41 µM in the assay with EKVX NSCLC; 0.905 µM in the assay on HOP-62 NSCLC; 0.276 µM in the assay with HS 578T breast; 0.286 µM in the assay with K-562 leukemia; 1.07 µM with MALME-3M melanoma. Besides, the GI50 in the assay on MDA-MB-231 breast is 0.366 µM; in the assay with RPMI-8226 leukemia it was 0.345 µM; in the assay on T-47D breast, 0.751 µM; with UACC-257 melanoma, 1.17 µM. Moreover, the TGI in the assay with COLO 205 colon worked out at 1.46 µM; with EKVX NSCLC it was 6.46 µM; with HOP-62 NSCLC, 3.76 µM; in the assay with HS 578T breast it was 1.42 µM; in the assay on MALME-3M melanoma it was 2.83 µM; in the assay on MDA-MB-231 breast, 2.17 µM. Further, the TGI was greater than 100 µM with RPMI-8226 leukemia, 3.51 µM in the assay on T-47D breast and 3.78 µM with UACC-257 melanoma.
With `CS(=O)(=O)CCNCc1ccc(-c2ccc3ncnc(Nc4ccc(OCc5cccc(F)c5)c(Cl)c4)c3c2)o1`, the GI50 with COLO 205 colon was > 10 µM and > 78.8 µM and 10.3 µM; in the assay on EKVX NSCLC, 0.374 µM and 0.0822 µM and 0.107 µM; in the assay with HOP-62 NSCLC, > 10 µM and > 62.2 µM and 13 µM; in the assay on HS 578T breast it was > 10 µM and 8.49 µM and 8.64 µM; in the assay on K-562 leukemia it was > 10 µM and 1.99 µM and 2.61 µM; in the assay with MALME-3M melanoma, > 10 µM and 1.66 µM and 2.67 µM. For the same compound, the GI50 in the assay with MDA-MB-231 breast is > 10 µM and 4.14 µM and 9.07 µM; in the assay on RPMI-8226 leukemia it was 3.54 µM and 2.82 µM and 1.58 µM; in the assay with UACC-257 melanoma, > 10 µM and 1.97 µM and 3.1 µM. Further, the TGI with COLO 205 colon is > 10 µM and > 100 µM and 33.3 µM; with EKVX NSCLC, > 10 µM and > 100 µM and 41.7 µM; with HOP-62 NSCLC it was > 10 µM and > 100 µM and 43.9 µM; with HS 578T breast it was > 10 µM and > 53.7 µM and 57.6 µM; in the assay on K-562 leukemia it was > 10 µM and 4.67 µM and 18.3 µM; in the assay on MALME-3M melanoma, > 10 µM and 3.23 µM and 6.56 µM. Further, the TGI with MDA-MB-231 breast was > 10 µM and > 100 µM and 29.5 µM; in the assay on RPMI-8226 leukemia, > 10 µM and > 29.4 µM and 7.05 µM; in the assay on T-47D breast, > 10 µM and > 100 µM and 37.6 µM; in the assay with UACC-257 melanoma, > 10 µM and 3.75 µM and 6.52 µM.
For the compound `CC1CCCC(C(=O)CC2CC(=O)NC(=O)C2)C1=O` (stereo unspecified), the TGI in the assay with COLO 205 colon, in the assay on EKVX NSCLC, with HOP-62 NSCLC, in the assay on HS 578T breast, in the assay on K-562 leukemia and in the assay on MALME-3M melanoma was greater than 100 µM in each case. Moreover, the TGI in the assay with MDA-MB-231 breast, with RPMI-8226 leukemia, in the assay on T-47D breast and in the assay with UACC-257 melanoma was greater than 100 µM throughout.
Take `Fc1cc(F)c(F)c(S)c1F`: the TGI with COLO 205 colon was greater than 100 µM; in the assay on EKVX NSCLC it was 55.2 µM; with HOP-62 NSCLC, greater than 100 µM; in the assay with HS 578T breast, greater than 100 µM; in the assay on K-562 leukemia, greater than 100 µM; in the assay with MALME-3M melanoma, greater than 100 µM. Also, the TGI in the assay on MDA-MB-231 breast is 44.8 µM; with RPMI-8226 leukemia it was greater than 100 µM; in the assay with T-47D breast it was greater than 100 µM; in the assay on UACC-257 melanoma, greater than 100 µM.
Turning to `CCc1ccccc1NC(=O)C(C#N)C1=C(Cl)C(=O)c2ccccc2C1=O` (stereo unspecified), the TGI is 31.1 µM in the assay on COLO 205 colon; 33.7 µM in the assay with EKVX NSCLC; 43.4 µM in the assay on HOP-62 NSCLC; 60.6 µM with HS 578T breast; greater than 100 µM with K-562 leukemia; 19.5 µM in the assay on MALME-3M melanoma. Also, the TGI in the assay on MDA-MB-231 breast is 22 µM; in the assay with RPMI-8226 leukemia, 77.9 µM; in the assay with T-47D breast it was 52.4 µM; in the assay on UACC-257 melanoma, 31.8 µM.
On to `OCc1ccc(-c2csc(-c3ccc(CO)o3)c2)o1`, for which the GI50 in the assay on COLO 205 colon was 4.36 µM; with EKVX NSCLC, 21.3 µM; in the assay with HOP-62 NSCLC it was 27.1 µM; with HS 578T breast, 70.6 µM; in the assay with K-562 leukemia, 11.6 µM; in the assay on MALME-3M melanoma, 35.5 µM. For the same compound, the GI50 with MDA-MB-231 breast was 67.2 µM; with RPMI-8226 leukemia it was 28.3 µM; with T-47D breast it was 1.44 µM; in the assay with UACC-257 melanoma, 1.56 µM. The TGI with COLO 205 colon is greater than 56 µM; with EKVX NSCLC it was greater than 89.6 µM; in the assay with HOP-62 NSCLC, greater than 100 µM; in the assay with HS 578T breast it was greater than 100 µM; in the assay with K-562 leukemia, greater than 100 µM; in the assay on MALME-3M melanoma, greater than 100 µM. For the same compound, the TGI was greater than 100 µM in the assay on MDA-MB-231 breast, greater than 100 µM in the assay on RPMI-8226 leukemia, 40 µM in the assay with T-47D breast and 4.75 µM in the assay on UACC-257 melanoma.
As for `N#CC1C[C@@H]2CC3(CCC2CN1C(=O)c1ccccc1)OCCO3` (stereo partly specified), the TGI with COLO 205 colon, with EKVX NSCLC, in the assay on HOP-62 NSCLC, in the assay on HS 578T breast, with K-562 leukemia and with MALME-3M melanoma was greater than 100 µM in each case. For the same compound, the TGI with MDA-MB-231 breast, with RPMI-8226 leukemia, with T-47D breast and in the assay on UACC-257 melanoma was greater than 100 µM in each case. The GI50 in the assay with HS 578T breast, in the assay with MDA-MB-231 breast and with T-47D breast was greater than 100 µM throughout.
As for `NC(=O)c1cccc2c(N[C@H](CN3CCC3)c3ccc(Cl)c(C(F)(F)F)c3)ncnc12`, the GI50 was 0.837 µM with COLO 205 colon; 0.878 µM in the assay on EKVX NSCLC; 0.964 µM in the assay on HOP-62 NSCLC; 0.191 µM in the assay with HS 578T breast; 2.53 µM with K-562 leukemia; 0.399 µM with MALME-3M melanoma. The GI50 with MDA-MB-231 breast is 2.44 µM; with RPMI-8226 leukemia, 2.69 µM; in the assay with T-47D breast, 0.101 µM; with UACC-257 melanoma, 1.22 µM. For the same compound, the TGI with COLO 205 colon is 2.66 µM; in the assay with EKVX NSCLC it was 10.3 µM; in the assay on HOP-62 NSCLC it was 14.5 µM; with HS 578T breast it was 2.65 µM; in the assay with K-562 leukemia, 10.8 µM; in the assay with MALME-3M melanoma, 1.85 µM. Also, the TGI was found to be 13.7 µM in the assay on MDA-MB-231 breast, 9.06 µM in the assay with RPMI-8226 leukemia, 2.47 µM in the assay on T-47D breast and 5.27 µM in the assay with UACC-257 melanoma.
